Experimental data reported in ChEMBL document CHEMBL1926576, “Fragment based lead discovery of small molecule inhibitors for the EPHA4 receptor tyrosine kinase” (Eur J Med Chem, 2012).

Key:
[1] = molecular target: Mitogen-activated protein kinase 14 (Homo sapiens) (UniProt Q16539); test: Inhibition of p38alpha MAPK assessed as residual activity at 10 uM using [33P-ATP] by radiometric filter binding assay
[2] = molecular target: Mitogen-activated protein kinase 13 (Homo sapiens) (UniProt O15264); test: Inhibition of p38delta MAPK assessed as residual activity at 10 uM using [33P-ATP] by radiometric filter binding assay
[3] = molecular target: Serine/threonine-protein kinase PAK 4 (Homo sapiens) (UniProt O96013); test: Inhibition of PAK4 assessed as residual activity at 10 uM using [33P-ATP] by radiometric filter binding assay
[4] = molecular target: Serine/threonine-protein kinase PAK 5 (Homo sapiens) (UniProt Q9P286); test: Inhibition of PAK5 assessed as residual activity at 10 uM using [33P-ATP] by radiometric filter binding assay
[5] = molecular target: Serine/threonine-protein kinase pim-1 (Homo sapiens) (UniProt P11309); test: Inhibition of PIM1 assessed as residual activity at 10 uM using [33P-ATP] by radiometric filter binding assay
[6] = molecular target: Serine/threonine-protein kinase pim-3 (Homo sapiens) (UniProt Q86V86); test: Inhibition of PIM3 assessed as residual activity at 10 uM using [33P-ATP] by radiometric filter binding assay
[7] = molecular target: Serine/threonine-protein kinase D1 (Homo sapiens) (UniProt Q15139); test: Inhibition of PKD1 assessed as residual activity at 10 uM using [33P-ATP] by radiometric filter binding assay
Chain of Serine/threonine-protein kinase D1 (Homo sapiens) (Q15139 whole entry): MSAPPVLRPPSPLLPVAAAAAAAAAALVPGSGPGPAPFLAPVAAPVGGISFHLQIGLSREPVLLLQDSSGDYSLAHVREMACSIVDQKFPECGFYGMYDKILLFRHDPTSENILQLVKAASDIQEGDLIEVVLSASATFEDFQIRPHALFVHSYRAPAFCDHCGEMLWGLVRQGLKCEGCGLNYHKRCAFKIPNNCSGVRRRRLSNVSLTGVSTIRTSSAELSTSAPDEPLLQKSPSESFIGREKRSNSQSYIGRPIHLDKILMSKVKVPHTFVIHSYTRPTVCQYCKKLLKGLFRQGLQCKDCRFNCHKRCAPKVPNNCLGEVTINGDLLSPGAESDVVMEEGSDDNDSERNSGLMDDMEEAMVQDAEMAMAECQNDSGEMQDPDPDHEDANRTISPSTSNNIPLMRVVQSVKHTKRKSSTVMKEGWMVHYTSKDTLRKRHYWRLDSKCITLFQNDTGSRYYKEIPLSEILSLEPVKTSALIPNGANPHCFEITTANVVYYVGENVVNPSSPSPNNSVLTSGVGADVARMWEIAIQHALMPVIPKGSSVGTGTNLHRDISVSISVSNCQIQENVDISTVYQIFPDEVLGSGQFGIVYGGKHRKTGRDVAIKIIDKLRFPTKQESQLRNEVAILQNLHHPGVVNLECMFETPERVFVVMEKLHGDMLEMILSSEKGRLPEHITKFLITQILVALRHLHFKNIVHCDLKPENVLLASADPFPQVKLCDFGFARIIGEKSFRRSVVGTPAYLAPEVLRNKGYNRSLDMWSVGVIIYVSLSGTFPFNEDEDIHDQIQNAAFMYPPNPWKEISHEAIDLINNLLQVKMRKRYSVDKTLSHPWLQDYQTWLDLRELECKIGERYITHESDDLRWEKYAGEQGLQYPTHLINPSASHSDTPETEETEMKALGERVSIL

[8] = molecular target: Receptor-interacting serine/threonine-protein kinase 2 (Homo sapiens) (UniProt O43353); test: Inhibition of RIPK2 assessed as residual activity at 10 uM using [33P-ATP] by radiometric filter binding assay
[9] = molecular target: Rho-associated protein kinase 2 (Homo sapiens) (UniProt O75116); test: Inhibition of ROCK2 assessed as residual activity at 10 uM using [33P-ATP] by radiometric filter binding assay
[10] = molecular target: Ribosomal protein S6 kinase alpha-3 (Homo sapiens) (UniProt P51812); test: Inhibition of RSK2 assessed as residual activity at 10 uM using [33P-ATP] by radiometric filter binding assay
Chain of Ribosomal protein S6 kinase alpha-3 (Homo sapiens) (P51812 whole entry): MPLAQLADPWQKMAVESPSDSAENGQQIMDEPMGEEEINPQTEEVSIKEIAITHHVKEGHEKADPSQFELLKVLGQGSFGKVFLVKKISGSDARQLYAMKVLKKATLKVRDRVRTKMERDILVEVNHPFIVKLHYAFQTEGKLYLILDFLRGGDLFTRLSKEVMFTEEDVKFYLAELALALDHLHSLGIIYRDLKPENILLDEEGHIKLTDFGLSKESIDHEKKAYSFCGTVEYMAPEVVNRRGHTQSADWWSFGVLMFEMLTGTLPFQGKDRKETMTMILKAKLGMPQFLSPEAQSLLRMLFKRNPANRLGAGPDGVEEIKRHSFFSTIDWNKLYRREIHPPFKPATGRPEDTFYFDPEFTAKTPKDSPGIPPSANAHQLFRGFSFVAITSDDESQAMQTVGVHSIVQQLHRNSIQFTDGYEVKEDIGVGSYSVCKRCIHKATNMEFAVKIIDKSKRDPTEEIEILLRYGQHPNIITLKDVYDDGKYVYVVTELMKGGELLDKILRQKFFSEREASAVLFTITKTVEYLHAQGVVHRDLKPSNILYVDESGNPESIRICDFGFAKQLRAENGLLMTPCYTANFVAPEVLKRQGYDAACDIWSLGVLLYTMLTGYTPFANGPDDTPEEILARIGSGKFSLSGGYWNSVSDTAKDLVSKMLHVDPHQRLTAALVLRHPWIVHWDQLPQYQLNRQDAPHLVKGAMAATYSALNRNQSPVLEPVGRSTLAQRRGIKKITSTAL

[11] = molecular target: Serine/threonine-protein kinase 33 (Homo sapiens) (UniProt Q9BYT3); test: Inhibition of STK33 assessed as residual activity at 10 uM using [33P-ATP] by radiometric filter binding assay
[12] = molecular target: Mitogen-activated protein kinase kinase kinase 7 (Homo sapiens) (UniProt O43318); test: Inhibition of TAK1 assessed as residual activity at 10 uM using [33P-ATP] by radiometric filter binding assay
[13] = molecular target: Serine/threonine-protein kinase TAO1 (Homo sapiens) (UniProt Q7L7X3); test: Inhibition of TAO1 assessed as residual activity at 10 uM using [33P-ATP] by radiometric filter binding assay
[14] = molecular target: Tau-tubulin kinase 1 (Homo sapiens) (UniProt Q5TCY1); test: Inhibition of TTBK1 assessed as residual activity at 10 uM using [33P-ATP] by radiometric filter binding assay
[15] = molecular target: Serine/threonine-protein kinase BRSK1 (Homo sapiens) (UniProt Q8TDC3); test: Inhibition of BRSK1 assessed as residual activity at 10 uM using [33P-ATP] by radiometric filter binding assay
[16] = molecular target: Cyclin-dependent kinase 2/cyclin A (Homo sapiens) (UniProt P24941+P20248+P78396); test: Inhibition of CDK2/Cyclin A assessed as residual activity at 10 uM using [33P-ATP] by radiometric filter binding assay; type: protein-complex assay
[17] = molecular target: Serine/threonine-protein kinase Chk1 (Homo sapiens) (UniProt O14757); test: Inhibition of CHK1 assessed as residual activity at 10 uM using [33P-ATP] by radiometric filter binding assay
Chain of Serine/threonine-protein kinase Chk1 (Homo sapiens) (O14757 whole entry, canonical isoform): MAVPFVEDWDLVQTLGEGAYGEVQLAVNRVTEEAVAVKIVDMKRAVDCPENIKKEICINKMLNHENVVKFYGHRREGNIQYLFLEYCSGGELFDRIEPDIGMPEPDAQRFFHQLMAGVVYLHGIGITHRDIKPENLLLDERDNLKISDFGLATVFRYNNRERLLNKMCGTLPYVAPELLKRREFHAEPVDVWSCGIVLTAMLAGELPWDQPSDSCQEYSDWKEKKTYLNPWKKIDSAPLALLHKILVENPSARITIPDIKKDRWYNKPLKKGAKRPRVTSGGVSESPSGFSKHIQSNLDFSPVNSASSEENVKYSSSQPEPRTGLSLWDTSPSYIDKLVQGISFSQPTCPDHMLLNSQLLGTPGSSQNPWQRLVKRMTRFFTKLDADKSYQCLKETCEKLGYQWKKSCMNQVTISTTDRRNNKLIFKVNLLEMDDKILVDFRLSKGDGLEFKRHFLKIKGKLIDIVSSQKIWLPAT

[18] = molecular target: Casein kinase I isoform alpha (Homo sapiens) (UniProt P48729); test: Inhibition of CK1 assessed as residual activity at 10 uM using [33P-ATP] by radiometric filter binding assay
Chain of Casein kinase I isoform alpha (Homo sapiens) (P48729 2-337 limits assumed): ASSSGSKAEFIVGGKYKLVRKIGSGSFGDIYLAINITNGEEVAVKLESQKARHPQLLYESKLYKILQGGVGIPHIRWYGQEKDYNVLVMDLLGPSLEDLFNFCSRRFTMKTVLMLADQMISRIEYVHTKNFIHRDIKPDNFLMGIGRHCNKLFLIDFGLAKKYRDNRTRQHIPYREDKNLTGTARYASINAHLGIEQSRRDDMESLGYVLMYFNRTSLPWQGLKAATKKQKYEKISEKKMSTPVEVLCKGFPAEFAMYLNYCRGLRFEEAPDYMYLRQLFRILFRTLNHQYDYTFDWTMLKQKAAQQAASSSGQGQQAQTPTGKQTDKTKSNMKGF

[19] = molecular target: Dual specificity protein kinase CLK2 (Homo sapiens) (UniProt P49760); test: Inhibition of CLK2 assessed as residual activity at 10 uM using [33P-ATP] by radiometric filter binding assay
Chain of Dual specificity protein kinase CLK2 (Homo sapiens) (P49760 whole entry, looked up): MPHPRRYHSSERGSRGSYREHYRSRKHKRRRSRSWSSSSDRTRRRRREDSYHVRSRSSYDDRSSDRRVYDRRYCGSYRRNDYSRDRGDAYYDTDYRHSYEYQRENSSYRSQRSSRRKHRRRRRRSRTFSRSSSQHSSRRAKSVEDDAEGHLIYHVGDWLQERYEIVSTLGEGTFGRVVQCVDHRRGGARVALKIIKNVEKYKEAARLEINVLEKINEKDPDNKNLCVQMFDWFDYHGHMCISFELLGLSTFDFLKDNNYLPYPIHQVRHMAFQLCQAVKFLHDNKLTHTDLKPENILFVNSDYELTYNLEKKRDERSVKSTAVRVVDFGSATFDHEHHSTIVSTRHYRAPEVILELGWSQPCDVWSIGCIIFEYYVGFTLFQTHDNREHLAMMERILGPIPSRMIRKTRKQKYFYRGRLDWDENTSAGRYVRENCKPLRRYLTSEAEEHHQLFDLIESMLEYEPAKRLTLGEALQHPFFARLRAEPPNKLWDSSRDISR

[20] = molecular target: Dual specificity tyrosine-phosphorylation-regulated kinase 1A (Homo sapiens) (UniProt Q13627); test: Inhibition of DYRK1A assessed as residual activity at 10 uM using [33P-ATP] by radiometric filter binding assay
[21] = molecular target: Ephrin type-B receptor 2 (Homo sapiens) (UniProt P29323); test: Inhibition of EPHB2 assessed as residual activity at 10 uM using [33P-ATP] by radiometric filter binding assay
[22] = molecular target: Ephrin type-B receptor 3 (Homo sapiens) (UniProt P54753); test: Inhibition of EPHB3 assessed as residual activity at 10 uM using [33P-ATP] by radiometric filter binding assay
Chain of Ephrin type-B receptor 3 (Homo sapiens) (P54753 whole entry): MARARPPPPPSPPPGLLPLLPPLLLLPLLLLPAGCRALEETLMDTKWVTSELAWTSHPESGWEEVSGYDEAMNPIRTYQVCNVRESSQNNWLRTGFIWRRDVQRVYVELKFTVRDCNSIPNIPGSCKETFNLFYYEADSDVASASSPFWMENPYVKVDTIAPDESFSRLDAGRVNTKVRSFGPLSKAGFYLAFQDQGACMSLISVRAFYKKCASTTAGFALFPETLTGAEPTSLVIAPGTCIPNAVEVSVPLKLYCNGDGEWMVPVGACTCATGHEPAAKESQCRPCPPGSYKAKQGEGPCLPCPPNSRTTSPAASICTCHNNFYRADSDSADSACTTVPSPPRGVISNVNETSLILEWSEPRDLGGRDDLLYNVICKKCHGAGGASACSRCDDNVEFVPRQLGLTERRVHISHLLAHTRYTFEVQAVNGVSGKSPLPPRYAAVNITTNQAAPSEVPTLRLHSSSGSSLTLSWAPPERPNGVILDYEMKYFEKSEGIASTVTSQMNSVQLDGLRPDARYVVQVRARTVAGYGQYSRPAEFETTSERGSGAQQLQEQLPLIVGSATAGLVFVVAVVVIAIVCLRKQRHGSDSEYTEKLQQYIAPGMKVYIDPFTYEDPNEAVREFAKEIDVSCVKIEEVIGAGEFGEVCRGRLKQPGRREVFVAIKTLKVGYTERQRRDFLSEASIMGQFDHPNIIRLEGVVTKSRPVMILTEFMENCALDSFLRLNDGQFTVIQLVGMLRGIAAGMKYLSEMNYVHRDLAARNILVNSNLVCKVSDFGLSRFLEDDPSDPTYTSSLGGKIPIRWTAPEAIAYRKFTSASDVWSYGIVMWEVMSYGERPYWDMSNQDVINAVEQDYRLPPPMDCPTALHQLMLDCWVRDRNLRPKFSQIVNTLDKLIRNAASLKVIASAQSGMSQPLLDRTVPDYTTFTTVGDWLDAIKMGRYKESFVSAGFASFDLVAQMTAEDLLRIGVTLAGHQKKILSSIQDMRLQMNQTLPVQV

[23] = molecular target: Receptor tyrosine-protein kinase erbB-4 (Homo sapiens) (UniProt Q15303); test: Inhibition of HER4 assessed as residual activity at 10 uM using [33P-ATP] by radiometric filter binding assay
[24] = molecular target: Homeodomain-interacting protein kinase 1 (Homo sapiens) (UniProt Q86Z02); test: Inhibition of HIPK1 assessed as residual activity at 10 uM using [33P-ATP] by radiometric filter binding assay
[25] = molecular target: Insulin-like growth factor 1 receptor (Homo sapiens) (UniProt P08069); test: Inhibition of IGF-1R assessed as residual activity at 10 uM using [33P-ATP] by radiometric filter binding assay
[26] = molecular target: Inhibitor of nuclear factor kappa-B kinase subunit beta (Homo sapiens) (UniProt O14920); test: Inhibition of IKK-beta assessed as residual activity at 10 uM using [33P-ATP] by radiometric filter binding assay
[27] = molecular target: Mitogen-activated protein kinase 8 (Homo sapiens) (UniProt P45983); test: Inhibition of JNK1 assessed as residual activity at 10 uM using [33P-ATP] by radiometric filter binding assay
Chain of Mitogen-activated protein kinase 8 (Homo sapiens) (P45983 whole entry): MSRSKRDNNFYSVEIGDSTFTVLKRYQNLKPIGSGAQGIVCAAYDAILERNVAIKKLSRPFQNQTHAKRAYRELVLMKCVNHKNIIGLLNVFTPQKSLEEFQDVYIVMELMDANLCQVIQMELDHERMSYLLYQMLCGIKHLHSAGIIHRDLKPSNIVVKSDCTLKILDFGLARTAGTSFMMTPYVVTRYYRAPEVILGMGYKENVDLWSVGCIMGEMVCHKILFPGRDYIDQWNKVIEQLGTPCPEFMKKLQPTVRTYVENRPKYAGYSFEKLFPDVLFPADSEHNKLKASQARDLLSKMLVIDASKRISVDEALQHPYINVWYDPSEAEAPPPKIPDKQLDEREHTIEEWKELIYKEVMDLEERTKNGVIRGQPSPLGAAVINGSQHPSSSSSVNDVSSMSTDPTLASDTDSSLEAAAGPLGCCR

[28] = molecular target: MAP kinase-activated protein kinase 2 (Homo sapiens) (UniProt P49137); test: Inhibition of MAPKAP-K2 assessed as residual activity at 10 uM using [33P-ATP] by radiometric filter binding assay
Chain of MAP kinase-activated protein kinase 2 (Homo sapiens) (P49137 whole entry, looked up): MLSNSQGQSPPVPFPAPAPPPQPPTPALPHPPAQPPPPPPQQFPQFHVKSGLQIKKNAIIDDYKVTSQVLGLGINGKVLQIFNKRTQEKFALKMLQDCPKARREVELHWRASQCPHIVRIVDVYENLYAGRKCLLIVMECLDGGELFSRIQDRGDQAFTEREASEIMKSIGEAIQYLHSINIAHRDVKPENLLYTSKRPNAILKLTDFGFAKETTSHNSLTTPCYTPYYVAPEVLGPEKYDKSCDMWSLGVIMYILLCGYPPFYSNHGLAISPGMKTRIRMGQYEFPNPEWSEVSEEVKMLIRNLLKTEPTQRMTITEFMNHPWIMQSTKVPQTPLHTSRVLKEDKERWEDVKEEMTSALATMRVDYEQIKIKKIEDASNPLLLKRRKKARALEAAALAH

[29] = molecular target: MAP/microtubule affinity-regulating kinase 4 (Homo sapiens) (UniProt Q96L34); test: Inhibition of MARK4 assessed as residual activity at 10 uM using [33P-ATP] by radiometric filter binding assay
[30] = molecular target: Dual specificity mitogen-activated protein kinase kinase 1 (Homo sapiens) (UniProt Q02750); test: Inhibition of MKK1 assessed as residual activity at 10 uM using [33P-ATP] by radiometric filter binding assay
[31] = molecular target: MAP kinase-interacting serine/threonine-protein kinase 1 (Homo sapiens) (UniProt Q9BUB5); test: Inhibition of MNK1 assessed as residual activity at 10 uM using [33P-ATP] by radiometric filter binding assay
[32] = molecular target: Serine/threonine-protein kinase 3 (Homo sapiens) (UniProt Q13188); test: Inhibition of MST2 assessed as residual activity at 10 uM using [33P-ATP] by radiometric filter binding assay

Activity [1]: 54% | Activity [2]: 100% | Activity [3]: 82% | Activity [4]: 92% | Activity [5]: 76% | Activity [6]: 82% | Activity [7]: 63% | Activity [8]: 17% | Activity [9]: 90% | Activity [10]: 82% | Activity [11]: 97% | Activity [12]: 96% | Activity [13]: 37% | Activity [14]: 94% | Activity [15]: 52% | Activity [16]: 87% | Activity [17]: 100% | Activity [18]: 96% | Activity [19]: 45% | Activity [20]: 60% | Activity [21]: 4% | Activity [22]: 7% | Activity [23]: 56% | Activity [24]: 124% | Activity [25]: 71% | Activity [26]: 51% | Activity [27]: 94% | Activity [28]: 89% | Activity [29]: 74% | Activity [30]: 29% | Activity [31]: 78% | Activity [32]: 66%
Compound: Cc1ccc(F)cc1-c1nc2[nH]nc(N)c2c2c1CCCC2
